What was measured:
5-HT2c (h) = 5-HT2c (h) (Homo sapiens, UniProt P28335); experiment: Binding to membrane receptors of central neuromediators of human origin: 5-HT2c
M3 (h) = M3 (h) (Homo sapiens, UniProt P20309); experiment: Binding to membrane receptors of central neuromediators of human origin: M3; conditions: M3 (h) receptor binding
Source text: (§1) The results of this study of binding to these various membrane receptors of central neuromediators of human origin are presented in Table 1.

H1 (h) = H1 (h) (Homo sapiens, UniProt P35367); experiment: Binding to membrane receptors of central neuromediators of human origin: H1; conditions: H1 (h) receptor binding
Sequence of H1 (h) (P35367 whole entry): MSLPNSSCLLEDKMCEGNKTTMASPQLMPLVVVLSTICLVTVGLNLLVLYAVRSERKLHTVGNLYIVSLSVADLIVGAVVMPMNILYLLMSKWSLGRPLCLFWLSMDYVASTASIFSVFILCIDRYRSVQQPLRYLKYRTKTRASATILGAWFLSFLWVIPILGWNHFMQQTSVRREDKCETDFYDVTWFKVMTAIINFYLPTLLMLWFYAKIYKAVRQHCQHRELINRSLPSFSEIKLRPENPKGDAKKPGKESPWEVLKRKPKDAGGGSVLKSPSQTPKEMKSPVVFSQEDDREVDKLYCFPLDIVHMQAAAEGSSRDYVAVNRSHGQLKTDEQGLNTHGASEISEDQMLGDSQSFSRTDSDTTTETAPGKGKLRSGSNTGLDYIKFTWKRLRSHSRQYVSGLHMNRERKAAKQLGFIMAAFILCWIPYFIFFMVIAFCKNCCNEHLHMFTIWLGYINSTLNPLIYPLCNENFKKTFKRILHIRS
Source text: as §1

D2 (h) = D2 (h) (Homo sapiens, UniProt P14416); experiment: Binding to membrane receptors of central neuromediators of human origin: D2; conditions: D2 (h) receptor binding
Sequence of D2 (h) (P14416 whole entry): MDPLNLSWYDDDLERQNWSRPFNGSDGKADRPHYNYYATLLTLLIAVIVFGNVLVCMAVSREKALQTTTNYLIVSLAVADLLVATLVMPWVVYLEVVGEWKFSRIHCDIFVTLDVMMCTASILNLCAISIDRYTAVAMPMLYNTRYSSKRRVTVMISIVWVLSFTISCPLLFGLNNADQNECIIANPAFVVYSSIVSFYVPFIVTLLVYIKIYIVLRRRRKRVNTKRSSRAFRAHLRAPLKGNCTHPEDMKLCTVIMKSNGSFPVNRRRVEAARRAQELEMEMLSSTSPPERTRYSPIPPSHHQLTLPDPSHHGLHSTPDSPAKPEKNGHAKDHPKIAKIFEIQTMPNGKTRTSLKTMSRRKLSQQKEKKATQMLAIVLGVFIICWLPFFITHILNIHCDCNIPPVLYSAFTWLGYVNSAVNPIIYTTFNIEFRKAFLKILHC
Source text: as §1

5-HT2A (h) = 5-HT2A (h) (Homo sapiens, UniProt P28223); experiment: Binding to membrane receptors of central neuromediators of human origin: 5-HT2A; conditions: 5-HT2A (h) receptor binding
Sequence of 5-HT2A (h) (P28223 whole entry): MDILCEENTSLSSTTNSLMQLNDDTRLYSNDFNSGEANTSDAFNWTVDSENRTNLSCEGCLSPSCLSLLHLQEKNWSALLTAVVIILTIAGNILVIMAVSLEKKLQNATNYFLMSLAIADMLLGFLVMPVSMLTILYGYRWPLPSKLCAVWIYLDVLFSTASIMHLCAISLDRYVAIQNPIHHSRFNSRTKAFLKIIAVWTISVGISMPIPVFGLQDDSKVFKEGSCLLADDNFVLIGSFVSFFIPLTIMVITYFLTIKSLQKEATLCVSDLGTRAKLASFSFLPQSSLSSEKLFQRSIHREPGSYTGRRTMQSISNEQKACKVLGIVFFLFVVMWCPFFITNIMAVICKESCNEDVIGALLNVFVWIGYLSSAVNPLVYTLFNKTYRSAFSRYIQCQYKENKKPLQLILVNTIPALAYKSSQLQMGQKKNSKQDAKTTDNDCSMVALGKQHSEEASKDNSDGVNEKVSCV

mice = experiment: Actimetry test (sedative activity, spontaneous motor activity); format: in vivo; conditions: spontaneous motor activity recorded for 10 minutes
Procedure: The sedative activity of the product was determined with mice according to an actimetry test. The actimeter is a device composed of 6 transparent cages in which the animals are individually placed. Photoelectric cells make it possible to detect movements in the cages (by cutting the beam). The spontaneous motor activity is recorded for 10 minutes. The results are expressed in the mean form and in the form of percentage of activity with respect to the control batch. The results are expressed in Table 2.

M1 (h) = target: T1, M1 (h) (Homo sapiens, UniProt P11229); experiment: Binding to membrane receptors of central neuromediators of human origin: M1; conditions: M1 (h) receptor binding
T1 sequence (P11229 1-460): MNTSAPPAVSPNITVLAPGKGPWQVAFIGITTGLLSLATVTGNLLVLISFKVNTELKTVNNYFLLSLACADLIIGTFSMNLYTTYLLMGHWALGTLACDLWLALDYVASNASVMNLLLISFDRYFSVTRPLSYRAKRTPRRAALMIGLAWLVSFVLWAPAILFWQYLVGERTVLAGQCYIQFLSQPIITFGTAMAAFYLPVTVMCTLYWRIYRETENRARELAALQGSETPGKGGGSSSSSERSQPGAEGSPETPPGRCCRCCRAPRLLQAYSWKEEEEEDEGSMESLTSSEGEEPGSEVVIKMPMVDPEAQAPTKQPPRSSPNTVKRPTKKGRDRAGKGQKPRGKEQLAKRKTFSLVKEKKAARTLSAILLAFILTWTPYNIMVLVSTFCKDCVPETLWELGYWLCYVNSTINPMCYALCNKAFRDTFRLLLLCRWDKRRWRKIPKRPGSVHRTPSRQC
Source text: as §1

5-HT1A (h) = target: T2, 5-HT1A (h) (Homo sapiens, UniProt P08908); experiment: Binding to membrane receptors of central neuromediators of human origin: 5-HT1A; conditions: 5-HT1A (h) receptor binding
T2 sequence (P08908 1-422): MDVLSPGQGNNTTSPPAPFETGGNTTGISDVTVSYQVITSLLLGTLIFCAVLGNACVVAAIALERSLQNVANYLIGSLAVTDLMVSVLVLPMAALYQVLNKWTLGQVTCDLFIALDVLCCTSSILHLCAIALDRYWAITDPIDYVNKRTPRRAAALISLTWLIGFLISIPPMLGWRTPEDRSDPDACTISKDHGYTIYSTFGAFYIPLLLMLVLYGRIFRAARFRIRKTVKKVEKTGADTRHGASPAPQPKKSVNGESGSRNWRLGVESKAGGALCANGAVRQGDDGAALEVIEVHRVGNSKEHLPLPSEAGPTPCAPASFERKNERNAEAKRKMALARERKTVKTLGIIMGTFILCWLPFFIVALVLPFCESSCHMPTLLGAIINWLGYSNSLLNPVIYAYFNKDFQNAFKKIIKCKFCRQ
Source text: as §1

M2 (h) = target: T3, M2 (h) (Homo sapiens, UniProt P08172); experiment: Binding to membrane receptors of central neuromediators of human origin: M2; conditions: M2 (h) receptor binding
T3 sequence (P08172 1-466): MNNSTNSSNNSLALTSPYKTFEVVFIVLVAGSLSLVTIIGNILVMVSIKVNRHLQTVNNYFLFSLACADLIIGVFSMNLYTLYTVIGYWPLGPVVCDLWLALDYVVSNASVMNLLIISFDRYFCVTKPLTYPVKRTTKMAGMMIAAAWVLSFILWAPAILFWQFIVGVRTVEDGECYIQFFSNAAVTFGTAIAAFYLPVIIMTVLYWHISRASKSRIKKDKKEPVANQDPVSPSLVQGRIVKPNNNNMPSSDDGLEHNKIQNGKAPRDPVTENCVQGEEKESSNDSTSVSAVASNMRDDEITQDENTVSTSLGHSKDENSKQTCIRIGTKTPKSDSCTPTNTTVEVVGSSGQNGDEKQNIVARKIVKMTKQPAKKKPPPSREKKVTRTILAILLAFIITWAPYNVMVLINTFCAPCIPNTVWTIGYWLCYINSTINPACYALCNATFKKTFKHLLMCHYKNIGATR
Source text: as §1

Sequence of 5-HT2c (h) (P28335 33-458): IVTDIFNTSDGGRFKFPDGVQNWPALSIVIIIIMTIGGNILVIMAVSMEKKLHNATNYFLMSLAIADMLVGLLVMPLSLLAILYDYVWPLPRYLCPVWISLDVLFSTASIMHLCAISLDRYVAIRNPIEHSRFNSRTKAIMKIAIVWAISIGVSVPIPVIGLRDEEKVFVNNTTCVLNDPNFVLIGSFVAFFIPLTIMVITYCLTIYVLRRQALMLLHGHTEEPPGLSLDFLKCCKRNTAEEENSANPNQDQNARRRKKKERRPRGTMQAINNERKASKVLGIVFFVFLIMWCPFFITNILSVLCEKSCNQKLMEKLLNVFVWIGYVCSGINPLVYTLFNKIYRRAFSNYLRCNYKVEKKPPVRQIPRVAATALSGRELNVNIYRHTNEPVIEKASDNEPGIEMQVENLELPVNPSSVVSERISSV
Sequence of M3 (h) (P20309 whole entry): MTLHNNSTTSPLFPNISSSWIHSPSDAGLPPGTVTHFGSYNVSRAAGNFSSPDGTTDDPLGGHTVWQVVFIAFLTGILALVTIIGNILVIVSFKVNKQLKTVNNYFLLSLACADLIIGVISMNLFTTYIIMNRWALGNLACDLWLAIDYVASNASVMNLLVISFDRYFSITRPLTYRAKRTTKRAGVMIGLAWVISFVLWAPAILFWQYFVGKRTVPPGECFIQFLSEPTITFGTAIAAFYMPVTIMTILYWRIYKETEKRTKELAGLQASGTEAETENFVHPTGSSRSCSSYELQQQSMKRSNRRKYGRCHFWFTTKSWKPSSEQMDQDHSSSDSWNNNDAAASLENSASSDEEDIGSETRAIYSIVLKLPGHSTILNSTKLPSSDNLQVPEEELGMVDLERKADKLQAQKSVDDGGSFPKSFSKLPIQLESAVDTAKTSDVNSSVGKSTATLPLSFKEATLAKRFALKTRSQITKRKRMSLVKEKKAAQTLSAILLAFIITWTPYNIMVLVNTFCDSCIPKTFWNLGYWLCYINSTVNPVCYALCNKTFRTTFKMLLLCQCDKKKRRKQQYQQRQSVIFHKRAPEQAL

CNCC(C)CN1c2ccccc2Sc2ccc(C#N)cc21 (stereo not drawn) [2-cyano-10-(2-methyl-3-(methylamino)propyl)phenothiazine]
IC50 (5-HT2c (h); 5-HT2c (h) receptor binding): 23 nM | Ki (5-HT2c (h); 5-HT2c (h) receptor binding): 8.5 nM | affinity for 5-HT2c receptors (5-HT2c (h); in words): high affinity | IC50 (M3 (h)): 5490 nM | Ki (M3 (h)): 3920 nM | IC50 (H1 (h)): 22 nM | Ki (H1 (h)): 9.3 nM | IC50 (D2 (h)): 31 nM | Ki (D2 (h)): 12 nM | IC50 (5-HT2A (h)): 9 nM | Ki (5-HT2A (h)): 1.5 nM | % of activity/control (mice; dose 0.75 mg/kg): 61% | % of activity/control (mice; dose 1 mg/kg): 63% | % of activity/control (mice; dose 2 mg/kg): 26% | % of activity/control (mice; dose 4 mg/kg): 9% | IC50 (M1 (h)): 21 nM | Ki (M1 (h)): 17 nM | IC50 (5-HT1A (h)): 460 nM | Ki (5-HT1A (h)): 184 nM | IC50 (M2 (h)): 368 nM | Ki (M2 (h)): 251 nM

From patent publication US7538106B2, “Application of 2-cyano-10- (2-methyl-3- (methylamino)- propyl) phenothiazine or a pharmaceutically acceptable salt as medicament” (Aventis Pharmaceuticals Inc., priority 2003, dated 2009)
